Bounds are passed on as bounds.

The subject of one test is AMPK.
Assay: not given
Conditions: Tamura et al., Bioorganic & Medicinal Chemistry Letters, Vol. 68, 2022, 128769; cited from earlier work.
On to `O=C(Nc1ncc(-c2ccc(-c3ccccc3)cc2)s1)O[C@@H]1CO[C@H]2[C@@H]1OC[C@H]2O` [compound 11], for which the AMPK agonist activity entry is reported as “no AMPK agonist activity”.

In the next test the target is T1, AMPKα1β1γ1 (Homo sapiens, UniProt Q13131+Q9Y478).
T1 construct: purchased CARNA 02-113
T1 sequence (Q13131 whole entry): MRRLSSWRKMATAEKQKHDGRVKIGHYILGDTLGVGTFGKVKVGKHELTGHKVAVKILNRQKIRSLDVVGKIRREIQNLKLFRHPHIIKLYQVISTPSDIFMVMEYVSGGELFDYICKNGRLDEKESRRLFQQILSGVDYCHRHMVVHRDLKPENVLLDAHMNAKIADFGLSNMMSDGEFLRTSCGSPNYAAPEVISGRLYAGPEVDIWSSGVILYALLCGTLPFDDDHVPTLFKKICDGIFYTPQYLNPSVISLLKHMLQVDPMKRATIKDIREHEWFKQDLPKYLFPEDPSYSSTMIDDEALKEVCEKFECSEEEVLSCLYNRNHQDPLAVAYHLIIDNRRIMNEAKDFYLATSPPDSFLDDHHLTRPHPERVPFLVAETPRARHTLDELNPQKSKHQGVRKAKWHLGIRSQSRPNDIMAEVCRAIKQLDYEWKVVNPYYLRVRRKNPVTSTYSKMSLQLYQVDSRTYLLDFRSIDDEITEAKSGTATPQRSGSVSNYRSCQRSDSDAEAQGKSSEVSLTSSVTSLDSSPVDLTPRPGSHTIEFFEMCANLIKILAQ
T1 sequence (Q9Y478 whole entry): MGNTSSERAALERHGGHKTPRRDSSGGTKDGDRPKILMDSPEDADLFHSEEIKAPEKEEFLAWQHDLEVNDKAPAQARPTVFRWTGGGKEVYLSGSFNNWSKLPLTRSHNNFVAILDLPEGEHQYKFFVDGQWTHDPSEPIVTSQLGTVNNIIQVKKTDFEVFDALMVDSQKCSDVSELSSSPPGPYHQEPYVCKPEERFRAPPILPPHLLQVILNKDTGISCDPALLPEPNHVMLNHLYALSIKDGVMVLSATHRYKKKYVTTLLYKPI
T1 sequence (P54619 whole entry partner): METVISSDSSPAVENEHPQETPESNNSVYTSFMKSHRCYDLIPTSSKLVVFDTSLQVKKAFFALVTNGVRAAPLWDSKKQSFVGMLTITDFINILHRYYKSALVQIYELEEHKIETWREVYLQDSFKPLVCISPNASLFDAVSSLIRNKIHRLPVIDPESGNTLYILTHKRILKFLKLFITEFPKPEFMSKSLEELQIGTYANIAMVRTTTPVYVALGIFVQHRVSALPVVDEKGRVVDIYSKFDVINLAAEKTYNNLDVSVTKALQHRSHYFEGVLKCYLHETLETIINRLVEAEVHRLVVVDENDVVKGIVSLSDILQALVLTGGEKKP
Nature of the test: In vitro assay for AMPK (α1β1γ1) enzyme agonist activity (TR-FRET). It is filed as biochemical. Conditions: 1 h; activity of 1 µM A769662 set as 100%; read-out: Top value (%). As to the method:
Test example 1: In vitro assay for AMPK (α1β1γ1) enzyme agonist activity
Test compounds were dissolved in DMSO to prepare 10 mM stock solution, which was then diluted to the predetermined test concentrations using kinase buffer (50 mM HEPES, 1 mM EDTA, 10 mM MgCl2, 0.01% Brij-35, pH = 7.5). Into a 384-well plate were added 5 µL of AMPKα1β1γ1 (CARNA, 02-113), 2.5 µL of the diluted test compound solution, and 2.5 µL of a mixture of […] and ATP, resulting in the following final concentrations: AMPKα1β1γ1 at 1.6 mg/L, […] at 5 nM, and ATP at 0.1 mM. The components were mixed evenly, and reacted at room temperature for 1 h. Subsequently, 5 µL of LANCE Detection Buffer (CR97-100, PerkinElmer) containing 40 mM EDTA was added. After standing for 5 min, 5 µL of 4× Eu-anti-phospho-CREB Antibody (TRF0200-M, PerkinElmer) was added, and the mixture was allowed to stand at room temperature for 1 h. The values of samples in each well were read using a microplate reader in TR-FRET mode (excitation wavelength: 320 nm; emission wavelengths: 665 nm and 615 nm). By comparing the values with those of the blank control group (1% DMSO) and the positive control group (1 µM A769662), the relative activity of AMPKα1β1γ1 at each test compound concentration (4.57 nM, 13.72 nM, 41.15 nM, 123.46 nM, 370.37 nM, 1111.11 nM, 3333.33 nM, and 10000 nM) was calculated, with the activity of 1 µM A769662 set as 100%. The data were analysed in GraphPad Prism 9 using a Dose-response-Stimulation four-parameter regression model to obtain the Top and EC50 values for the test compounds.
For orientation: Time-resolved FRET reads energy transfer from a long-lived donor to a nearby acceptor.
`O=C(Nc1cc(Cl)c(-c2ccc(N3CCCC3)cc2)s1)O[C@@H]1CO[C@H]2[C@@H]1OC[C@H]2O` [compound 14]: the Emax was in the range of 70 to 100%.
The same measure, in the same setting: as for `O=C(Nc1cc(C2CC2)c(-c2ccc(C3(CO)CC3)cc2)s1)O[C@@H]1CO[C@H]2[C@@H]1OC[C@H]2O` [compound 22], the figure is 150 to 200%.
In the case of `O=C(Nc1cc(Cl)c(C#Cc2ccccc2)s1)O[C@@H]1CO[C@H]2[C@@H]1OC[C@H]2O` [compound 17], the Emax was 200 to 300%.
Same read-out and setting: the result for `NCCCOc1ccc(-c2sc(NC(=O)O[C@@H]3CO[C@H]4[C@@H]3OC[C@H]4O)cc2Cl)cc1` [Compound 31] reads 150 to 200%; that for `O=C(Nc1cc(Cl)c(-c2ccc(C3(CO)CC3)cc2)s1)O[C@H]1CC[C@H](CO)CC1` [Compound 39], 100 to 150%.
As to `CN1CCC(c2ccc(-c3sc(NC(=O)O[C@@H]4CO[C@H]5[C@@H]4OC[C@H]5O)cc3Cl)cc2)CC1` [compound 24], the Emax lay in the range of 150 to 200%.
As for `CS(=O)(=O)c1ccc(-c2ccc(-c3sc(NC(=O)O[C@@H]4CO[C@H]5[C@@H]4OC[C@H]5O)cc3Cl)cc2)cc1` [compound 19], the Emax was 150 to 200%.
Same read-out and setting: as for `O=C(Nc1cc(Cl)c(-c2ccc(-c3ccccc3O)cc2)s1)OCCCO` [Compound 42], the figure is 150 to 200%; as for `O=C(Nc1cc(Cl)c(-c2ccc(OCCCN3CCOCC3)cc2)s1)O[C@@H]1CO[C@H]2[C@@H]1OC[C@H]2O` [compound 23], at least 300%; as for `O=C(Nc1cc(Cl)c(C#Cc2ccccc2O)s1)O[C@@H]1CO[C@H]2[C@@H]1OC[C@H]2O` [compound 20], at least 300%.
On the same count and under the same terms, the result for `O=C(Nc1cc(Cl)c(-c2ccc3c(ccn3C3CC3)c2)s1)O[C@@H]1CO[C@H]2[C@@H]1OC[C@H]2O` [compound 18] reads 150 to 200%.
As for `CCOC(=O)[C@H]1CC[C@H](OC(=O)Nc2cc(Cl)c(-c3ccc(C4(CO)CC4)cc3)s2)CC1` [Compound 37], the Emax lay within 70 to 100%.
Turning to `O=C(Nc1cc(-c2ccc(C3(CO)CC3)cc2)c(Cl)s1)O[C@@H]1CO[C@H]2[C@@H]1OC[C@H]2O` [compound 1], the Emax was 200 to 300%.
The same measure, in the same setting: as for `Cn1ccc2cc(-c3sc(NC(=O)O[C@@H]4CO[C@H]5[C@@H]4OC[C@H]5O)cc3Cl)ccc21` [compound 5], the figure is 150 to 200%; as for `O=C(Nc1cc(-c2ccc(C3(CO)CC3)cc2)cs1)O[C@@H]1CO[C@H]2[C@@H]1OC[C@H]2O` [compound 2], 150 to 200%.
For the molecule `O=C(Nc1csc(-c2ccc(C3(CO)CC3)cc2)c1)O[C@@H]1CO[C@H]2[C@@H]1OC[C@H]2O` [compound 13], the Emax lay in the range of 200 to 300%.
As for `Cc1cc(NC(=O)O[C@@H]2CO[C@H]3[C@@H]2OC[C@H]3O)sc1-c1ccc(C2(CO)CC2)cc1` [compound 8], the Emax lay within 200 to 300%.
Turning to `O=C(Nc1cc(Cl)c(C#CC2(O)CCC2)s1)O[C@@H]1CO[C@H]2[C@@H]1OC[C@H]2O` [Compound 28], the Emax fell in the range of 70 to 100%.
For the molecule `COc1ccc(-c2sc(NC(=O)O[C@@H]3CO[C@H]4[C@@H]3OC[C@H]4O)cc2Cl)cc1` [compound 10], the Emax lay within 200 to 300%.
Same read-out and setting: as for `O=C(Nc1cc(Cl)c(-c2ccc(N3CCOCC3)cc2)s1)O[C@@H]1CO[C@H]2[C@@H]1OC[C@H]2O` [compound 9], the figure is 150 to 200%; as for `Cn1ccc2cc(-c3sc(NC(=O)OCCCO)cc3Cl)ccc21` [compound 15], 70 to 100%; as for `O=C(Nc1cc(Cl)c(-c2ccc(-c3ccccc3O)cc2)s1)O[C@@H]1CO[C@H]2[C@@H]1OC[C@H]2O` [compound 6], 200 to 300%.
Still for that read-out and setting: the result for `NCCCc1ccc(-c2sc(NC(=O)O[C@@H]3CO[C@H]4[C@@H]3OC[C@H]4O)cc2Cl)cc1` [Compound 32] reads 100 to 150%.
As to `O=C(Nc1cc(Cl)c(-c2ccc(C3(O)CCC3)cc2)s1)O[C@@H]1CO[C@H]2[C@@H]1OC[C@H]2O` [compound 7], the Emax is 200 to 300%.
Turning to `O=C(Nc1cc(Cl)c(-c2ccc(C3(CO)CC3)cc2)s1)O[C@@H]1CO[C@H]2[C@@H]1OC[C@H]2O` [compound 3], the Emax fell in the range of 200 to 300%.
Still for that read-out and setting: the result for `O=C(Nc1cc(Cl)c(-c2ccc(-c3ccccc3)cc2)s1)O[C@@H]1CO[C@H]2[C@@H]1OC[C@H]2O` [compound 4] reads 150 to 200%; that for `CCc1cc(NC(=O)O[C@@H]2CO[C@H]3[C@@H]2OC[C@H]3O)sc1-c1ccc(C2(CO)CC2)cc1` [Compound 40], 100 to 150%; that for `O=C(Nc1cc(Cl)c(-c2ccc(C3(CO)CC3)cc2)s1)O[C@H]1CC[C@H](C(=O)O)CC1` [Compound 38], 150 to 200%.

The values are drawn from patent EP4772502A1, “ARYL OR HETEROARYL SUBSTITUTED CARBAMATE COMPOUND AND DERIVATIVE AND USE THEREOF” (Shenzhen Zhongge Biological Technology Co., Ltd., priority 2023, dated 2025).
